Measurements published in patent US11420958B2, “Aryl and heteroaryl substituted indole compounds” (BRISTOL-MYERS SQUIBB COMPANY, priority 2017, dated 2022).

Assays:
Format in all cases: cell-based
human TLR7 = human TLR7 (Homo sapiens (Human), UniProt Q9NYK1); assay: TLR7 inhibition reporter assay (HEK-Blue, SEAP); details: HEK-Blue cells overexpressing human TLR7, gardiquimod 7.5 μM stimulation
Summary of the method: (§1)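 HEK-Blue cells overexpressing the receptor carry a SEAP reporter under IFN-β minimal promoter with NF-κB/AP-1 sites. Compounds (0.05 nM–50 μM final) were preincubated 30 min at room temperature, then cells were stimulated with gardiquimod 7.5 μM (TLR7), R848 15.9 μM (TLR8) or ODN2006 5 nM (TLR9) for 22 h at 37 °C.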

human TLR8 = human TLR8 (Homo sapiens (Human), UniProt Q9NR97); assay: TLR8 inhibition reporter assay (HEK-Blue, SEAP); details: HEK-Blue cells overexpressing human TLR8, R848 15.9 μM stimulation
Summary of the method: as §1

human TLR9 = human TLR9 (Homo sapiens (Human), UniProt Q9NR96); assay: TLR9 inhibition reporter assay (HEK-Blue, SEAP); details: HEK-Blue cells overexpressing human TLR9, ODN2006 5 nM stimulation
Summary of the method: as §1

Sequence of human TLR9 (Q9NR96 26-1032): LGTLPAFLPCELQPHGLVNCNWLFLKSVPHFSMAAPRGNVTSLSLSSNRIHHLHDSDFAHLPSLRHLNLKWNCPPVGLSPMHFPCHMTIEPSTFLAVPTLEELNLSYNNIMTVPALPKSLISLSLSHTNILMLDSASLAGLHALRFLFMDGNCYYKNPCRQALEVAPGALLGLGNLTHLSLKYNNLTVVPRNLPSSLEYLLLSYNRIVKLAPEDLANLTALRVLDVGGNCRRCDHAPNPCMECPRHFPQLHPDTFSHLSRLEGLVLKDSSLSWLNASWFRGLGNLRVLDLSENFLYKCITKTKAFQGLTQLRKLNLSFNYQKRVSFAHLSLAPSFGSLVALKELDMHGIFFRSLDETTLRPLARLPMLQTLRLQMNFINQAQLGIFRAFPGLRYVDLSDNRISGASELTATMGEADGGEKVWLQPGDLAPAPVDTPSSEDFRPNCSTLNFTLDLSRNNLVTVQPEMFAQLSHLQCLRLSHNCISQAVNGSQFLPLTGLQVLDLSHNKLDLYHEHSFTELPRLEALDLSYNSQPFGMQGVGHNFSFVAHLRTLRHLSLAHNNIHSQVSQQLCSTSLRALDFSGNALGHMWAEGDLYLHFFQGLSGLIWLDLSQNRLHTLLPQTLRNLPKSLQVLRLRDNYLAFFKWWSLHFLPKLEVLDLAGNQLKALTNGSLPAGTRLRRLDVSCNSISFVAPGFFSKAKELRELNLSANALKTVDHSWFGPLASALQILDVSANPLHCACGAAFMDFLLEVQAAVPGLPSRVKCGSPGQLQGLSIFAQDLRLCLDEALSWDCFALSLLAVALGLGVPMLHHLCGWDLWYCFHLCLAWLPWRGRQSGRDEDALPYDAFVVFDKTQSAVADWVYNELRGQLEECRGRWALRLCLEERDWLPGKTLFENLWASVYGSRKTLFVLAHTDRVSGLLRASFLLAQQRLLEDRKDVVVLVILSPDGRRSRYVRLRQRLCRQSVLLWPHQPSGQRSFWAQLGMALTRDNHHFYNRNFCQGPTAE
Sequence of human TLR8 (Q9NR97 27-1041): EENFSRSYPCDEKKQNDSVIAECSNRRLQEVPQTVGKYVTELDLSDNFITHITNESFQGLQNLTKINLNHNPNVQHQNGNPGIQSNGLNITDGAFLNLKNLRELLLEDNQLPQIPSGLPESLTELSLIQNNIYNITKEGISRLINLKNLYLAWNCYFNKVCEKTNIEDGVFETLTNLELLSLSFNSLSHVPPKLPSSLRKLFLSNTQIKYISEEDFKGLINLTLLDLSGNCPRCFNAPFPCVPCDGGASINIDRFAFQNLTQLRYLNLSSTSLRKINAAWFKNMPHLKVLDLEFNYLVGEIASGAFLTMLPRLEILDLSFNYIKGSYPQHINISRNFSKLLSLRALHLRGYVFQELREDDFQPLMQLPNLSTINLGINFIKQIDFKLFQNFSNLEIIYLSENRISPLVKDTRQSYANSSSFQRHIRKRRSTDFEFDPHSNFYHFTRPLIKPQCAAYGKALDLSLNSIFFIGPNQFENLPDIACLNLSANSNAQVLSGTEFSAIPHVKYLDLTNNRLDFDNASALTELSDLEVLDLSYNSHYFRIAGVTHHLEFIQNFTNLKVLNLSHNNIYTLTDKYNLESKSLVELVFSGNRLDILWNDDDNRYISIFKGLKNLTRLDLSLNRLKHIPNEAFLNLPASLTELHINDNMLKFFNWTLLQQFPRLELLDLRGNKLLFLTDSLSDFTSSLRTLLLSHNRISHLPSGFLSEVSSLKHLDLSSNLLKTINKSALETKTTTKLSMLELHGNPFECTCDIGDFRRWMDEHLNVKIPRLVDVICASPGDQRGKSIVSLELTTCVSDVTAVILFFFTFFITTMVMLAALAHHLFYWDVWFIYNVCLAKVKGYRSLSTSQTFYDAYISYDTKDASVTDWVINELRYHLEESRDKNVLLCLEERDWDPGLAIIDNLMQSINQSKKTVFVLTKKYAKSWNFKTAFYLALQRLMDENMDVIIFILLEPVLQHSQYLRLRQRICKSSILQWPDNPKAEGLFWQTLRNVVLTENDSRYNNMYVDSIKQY
Sequence of human TLR7 (Q9NYK1 27-1049): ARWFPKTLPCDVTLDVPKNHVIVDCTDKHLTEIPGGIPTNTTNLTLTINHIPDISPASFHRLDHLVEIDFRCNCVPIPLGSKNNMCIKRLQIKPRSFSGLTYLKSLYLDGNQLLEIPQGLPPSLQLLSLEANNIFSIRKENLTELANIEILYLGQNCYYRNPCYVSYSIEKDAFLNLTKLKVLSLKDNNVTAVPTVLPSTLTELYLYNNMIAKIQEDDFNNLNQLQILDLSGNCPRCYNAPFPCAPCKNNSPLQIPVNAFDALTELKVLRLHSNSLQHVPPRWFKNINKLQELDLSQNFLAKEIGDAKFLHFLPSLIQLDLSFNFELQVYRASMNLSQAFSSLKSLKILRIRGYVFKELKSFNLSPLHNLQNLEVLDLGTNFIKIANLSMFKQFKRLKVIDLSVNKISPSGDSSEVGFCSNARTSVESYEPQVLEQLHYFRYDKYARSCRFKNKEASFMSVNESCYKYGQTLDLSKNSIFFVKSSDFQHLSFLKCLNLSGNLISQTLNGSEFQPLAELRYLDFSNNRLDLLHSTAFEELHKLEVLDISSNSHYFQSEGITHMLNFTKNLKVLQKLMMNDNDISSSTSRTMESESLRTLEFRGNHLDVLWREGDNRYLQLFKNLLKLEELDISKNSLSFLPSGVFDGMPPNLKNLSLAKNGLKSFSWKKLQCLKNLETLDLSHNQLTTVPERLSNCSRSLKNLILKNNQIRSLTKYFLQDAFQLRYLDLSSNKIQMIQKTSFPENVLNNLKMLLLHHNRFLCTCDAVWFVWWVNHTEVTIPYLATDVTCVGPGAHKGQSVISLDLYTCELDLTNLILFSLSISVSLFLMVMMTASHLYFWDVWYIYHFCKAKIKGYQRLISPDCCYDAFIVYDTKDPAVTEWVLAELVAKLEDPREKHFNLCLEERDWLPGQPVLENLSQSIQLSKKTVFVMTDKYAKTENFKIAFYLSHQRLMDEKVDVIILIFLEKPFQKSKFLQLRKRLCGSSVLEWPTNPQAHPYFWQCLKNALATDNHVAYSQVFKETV

Row | IC50 (human TLR7) | IC50 (human TLR8) | IC50 (human TLR9) | SMILES
1 | 137 nM | 5.8 nM | 427 nM | CC(C)c1c(-c2ccnc3n[nH]cc23)[nH]c2ccc(-c3nc(C(=O)NC4CCN(C(C)C)CC4)co3)cc12 [Example 183, 2-(3-isopropyl-2-(2H-pyrazolo[3,4-b]pyridin-4-yl)-1H-indol-5-yl)-N-(1-isopropylpiperidin-4-yl)oxazole-4-carboxamide]
2 | 3.7 nM | 20 nM | 3640 nM | Cc1cc(-c2[nH]c3ccc(-c4cn5cc(C)nc5cc4F)cc3c2C(C)C)cc(C)n1 [Example 348, 6-(2-(2,6-dimethylpyridin-4-yl)-3-isopropyl-1H-indol-5-yl)-7-fluoro-2-methylimidazo[1,2-a]pyridine]
3 | 820 nM | 56 nM | > 50000 nM | CC(C)c1c(-c2ccnc3[nH]ncc23)[nH]c2ccc(-c3cccc(S(N)(=O)=O)c3)cc12 [Example 415, 3-(3-isopropyl-2-(1H-pyrazolo[3,4-b]pyridin-4-yl)-1H-indol-5-yl)benzenesulfonamide]
4 | 60 nM | 20 nM | 626 nM | COc1ccc(-c2[nH]c3ccc(-c4nnc(C5CCN(C6CCN(C)CC6)CC5)o4)cc3c2C(C)C)cc1OC [Example 21, 2-(2-(3,4-dimethoxyphenyl)-3-isopropyl-1H-indol-5-yl)-5-(1′-methyl-[1,4′-bipiperidin]-4-yl)-1,3,4-oxadiazole]
5 | 1100 nM | 167 nM | 34100 nM | CC(C)c1c(-c2ccnc3n[nH]cc23)[nH]c2ccc(-c3nnc(CN4CCCC4)o3)cc12 [Example 128, 2-(3-isopropyl-2-(2H-pyrazolo[3,4-b]pyridin-4-yl)-1H-indol-5-yl)-5-(pyrrolidin-1-ylmethyl)-1,3,4-oxadiazole]
6 | 450 nM | 35 nM | 47300 nM | CC(C)c1c(-c2ccnc3[nH]ncc23)[nH]c2ccc(-c3ccc4nccnc4c3)cc12 [Example 468, 6-(3-isopropyl-2-(1H-pyrazolo[3,4-b]pyridin-4-yl)-1H-indol-5-yl)quinoxaline]
7 | 22 nM | 30 nM | 306 nM | CC(C)c1c(-c2ccc3nccn3c2)[nH]c2ccc(-c3nnc(C(=O)NCCN(C)C)o3)cc12 [Example 242, N-(2-(dimethylamino)ethyl)-5-(2-(imidazo[1,2-a]pyridin-6-yl)-3-isopropyl-1H-indol-5-yl)-1,3,4-oxadiazole-2-carboxamide]
8 | 771 nM | 63 nM | > 50000 nM | CC(C)c1c(-c2ccnc3[nH]ncc23)[nH]c2ccc(-c3cccc(CO)c3)cc12 [Example 414, (3-(3-isopropyl-2-(1H-pyrazolo[3,4-b]pyridin-4-yl)-1H-indol-5-yl)phenyl)methanol]
9 | 97 nM | 2.9 nM | 2000 nM | Cc1cc(-c2[nH]c3ccc(-c4nnc(C5CCN(CC(=O)N(C)C)CC5)o4)cc3c2C(C)C)ccn1 [Example 65, 2-(4-(5-(3-isopropyl-2-(2-methylpyridin-4-yl)-1H-indol-5-yl)-1,3,4-oxadiazol-2-yl)piperidin-1-yl)-N,N-dimethylacetamide]
10 | 321 nM | 72 nM | 1540 nM | CCc1c(-c2ccnc(C)c2)[nH]c2ccc(-c3noc(C4CC5(CCNCC5)C4)n3)cc12 [Example 461, 3-(3-ethyl-2-(2-methylpyridin-4-yl)-1H-indol-5-yl)-5-(7-azaspiro[3.5]nonan-2-yl)-1,2,4-oxadiazole]
11 | 34 nM | 1 nM | 633 nM | Cc1cc(-c2[nH]c3ccc(-c4nnc(C[C@H]5CCCN5)o4)cc3c2C(C)C)ccn1 [Example 145, (R)-2-(3-isopropyl-2-(2-methylpyridin-4-yl)-1H-indol-5-yl)-5-(pyrrolidin-2-ylmethyl)-1,3,4-oxadiazole]
12 | 157 nM | 32 nM | 917 nM | COc1ccc(-c2[nH]c3ccc(-c4ccc(N5CCN(C(C)C)CC5)cc4)cc3c2C(C)C)cc1OC [Example 382, 2-(3,4-dimethoxyphenyl)-3-isopropyl-5-(4-(4-isopropylpiperazin-1-yl)phenyl)-1H-indole]
13 | 517 nM | 22600 nM | 46600 nM | CCc1c(-c2ccc(OC)c(OC)c2)[nH]c2ccc(-c3ccc(N4CCN(C)CC4)cc3)cc12 [Example 381, 2-(3,4-dimethoxyphenyl)-3-ethyl-5-(4-(4-methylpiperazin-1-yl)phenyl)-1H-indole]
14 | 57 nM | 176 nM | 25200 nM | Cc1cc(-c2[nH]c3ccc(-c4ccn5ncnc5c4C)cc3c2C(C)C)cc(C)n1 [Example 355, 7-(2-(2,6-dimethylpyridin-4-yl)-3-isopropyl-1H-indol-5-yl)-8-methyl-[1,2,4]triazolo[1,5-a]pyridine]
15 | 49 nM | 4.6 nM | 1220 nM | COc1ccc(-c2[nH]c3ccc(-c4nnc(C(=O)N(C)CCCN(C)C)o4)cc3c2C(C)C)cc1OC [Example 96, 5-(2-(3,4-dimethoxyphenyl)-3-isopropyl-1H-indol-5-yl)-N-(3-(dimethylamino)propyl)-N-methyl-1,3,4-oxadiazole-2-carboxamide]
16 | 17 nM | 7.5 nM | 14400 nM | Cc1cc(-c2[nH]c3ccc(-c4cnc(N)cn4)cc3c2C(C)C)ccn1 [Example 359, 5-(3-isopropyl-2-(2-methylpyridin-4-yl)-1H-indol-5-yl)pyrazin-2-amine]
17 | 53 nM | 39 nM | > 50000 nM | Cc1cc(-c2[nH]c3ccc(-c4cc5c(s4)CN(C(=O)CS(C)(=O)=O)CC5)cc3c2C(C)C)cc(C)n1 [Example 353, 1-(2-(2-(2,6-dimethylpyridin-4-yl)-3-isopropyl-1H-indol-5-yl)-4,7-dihydrothieno[2,3-c]pyridin-6(5H)-yl)-2-(methylsulfonyl)ethan-1-one]
18 | 22 nM | 6.2 nM | 602 nM | Cc1cc(-c2[nH]c3ccc(-c4nc(C(=O)NCCN5CCCCC5)co4)cc3c2C(C)C)cc(C)n1 [Example 274, 2-(2-(2,6-dimethylpyridin-4-yl)-3-isopropyl-1H-indol-5-yl)-N-(2-(piperidin-1-yl)ethyl)oxazole-4-carboxamide]
19 | 113 nM | 13 nM | 3410 nM | Cc1cc(-c2[nH]c3ccc(-c4nc(C(=O)NC5CCN(C(C)C)CC5)c(C)o4)cc3c2C(C)C)ccn1 [Example 191, 2-(3-isopropyl-2-(2-methylpyridin-4-yl)-1H-indol-5-yl)-N-(1-isopropylpiperidin-4-yl)-5-methyloxazole-4-carboxamide]
20 | 3130 nM | 443 nM | 11200 nM | CCc1c(-c2ccc(OC)c(OC)c2)[nH]c2ccc(-c3noc(C4CCN(Cc5ccccc5)CC4)n3)cc12 [Example 444, 5-(1-benzylpiperidin-4-yl)-3-(2-(3,4-dimethoxyphenyl)-3-ethyl-1H-indol-5-yl)-1,2,4-oxadiazole]

Row | SMILES | IC50 (human TLR7) | IC50 (human TLR8) | IC50 (human TLR9)
21 | Cc1cc(-c2[nH]c3ccc(-c4nnc(C5CN6CCC5CC6)o4)cc3c2C(C)C)ccn1 (stereo not drawn) [Example 222, 2-(3-isopropyl-2-(2-methylpyridin-4-yl)-1H-indol-5-yl)-5-(quinuclidin-3-yl)-1,3,4-oxadiazole] | 34 nM | 3.2 nM | 1240 nM
